Read-outs that look alike come from different tables or passages of the source.
How the values were obtained:
[1] = target: T1, Aβ aggregates of human AD brain homogenates (Homo sapiens, UniProt P05067); assay: In vitro binding assay for Aβ aggregates of human AD brain homogenates; conditions: for Ki: Avg ± SD, n = 3, read-out: Ki of cold competing drug; for Kd: value used in Cheng-Prusoff equation
T1 construct: from tissue; host or cells: human Alzheimer's disease brain homogenate
Experimental: Competitive binding assays were performed in 12×75 mm borosilicate glass tubes. The reaction mixture contained 100 μL of AD brain homogenates (20-25 μg), 100 μL of [^18F]AV-45 or [^18F]AV-45-D3 (˜150,000 cpm), and 100 μL of competing compounds (10^−5 to 10^−10 M diluted serially in PBS containing 0.1% bovine serum albumin) in a final volume of […]. Nonspecific binding was defined in the presence of 1 μM of IMPY (6-iodo-2-(4′-dimethylamino-)phenyl-imidazo[1,2-a]pyridine) in the same assay tubes. The mixture was incubated for 60 min at room temperature, and the bound and the free radioactivity were separated by vacuum filtration through Whatman GF/B filters using a Brandel M-24R cell harvester, followed by washing with PBS buffer three times. The radioactivity on the filters was counted with a gamma counter (Wizard^2, Perkin-Elmer). Data were analyzed using the nonlinear least-square curve fitting program LIGAND to determine IC50.

[2] = target: T2, vesicular monoamine transporter 2 (VMAT2) (Rattus norvegicus, UniProt Q01827); assay: In vitro binding assay for Ki determination, rat striatum homogenates; conditions: for Ki: Avg ± SD, n = 3, read-out: Ki of cold competing drug; for Kd: value used in Cheng-Prusoff equation
T2 construct: Tissue homogenates of striatum (dissected from rat brain) were prepared; from tissue; host or cells: rat brain striatum homogenate
T2 sequence (Q01827 whole entry): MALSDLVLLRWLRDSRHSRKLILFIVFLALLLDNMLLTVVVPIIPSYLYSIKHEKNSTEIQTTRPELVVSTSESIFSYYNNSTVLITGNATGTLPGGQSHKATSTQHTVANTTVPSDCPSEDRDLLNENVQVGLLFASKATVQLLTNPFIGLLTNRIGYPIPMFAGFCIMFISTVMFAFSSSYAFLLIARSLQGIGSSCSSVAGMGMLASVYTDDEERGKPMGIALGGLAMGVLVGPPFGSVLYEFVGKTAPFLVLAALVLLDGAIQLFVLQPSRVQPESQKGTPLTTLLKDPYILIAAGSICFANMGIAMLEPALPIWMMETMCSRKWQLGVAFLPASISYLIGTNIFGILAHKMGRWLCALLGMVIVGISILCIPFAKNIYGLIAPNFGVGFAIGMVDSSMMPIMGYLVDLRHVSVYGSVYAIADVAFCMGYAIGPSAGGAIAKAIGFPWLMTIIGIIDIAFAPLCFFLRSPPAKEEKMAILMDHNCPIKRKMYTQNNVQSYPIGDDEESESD
Experimental: Tissue homogenates of striatum (dissected from rat brain) were prepared in 50 mM of HEPES, pH 7.5, and 0.3 M of sucrose. Compounds were examined for their ability to compete for the binding of ^18F-AV-133 or ^18F-AV-133-D6 (^18F-Ia) (0.15-0.2 nM) at concentrations ranging from 10^−7 to 10^−12 M. The binding assays were performed in glass tubes (12×75 mm) in a final volume of 0.25 mL. […] After incubation for 90 min at room temperature, the bound ligand was separated from the free ligand by filtration through glass fiber filters. The filters were washed three times with 4 mL of ice-cold PBS buffer, pH 7.4 and the radioactivity on the filters was counted with a gamma counter (WIZARD^2, Perkin-Elmer).

[3] = cited from earlier work; for Biodistribution Blood / Biodistribution Bone / Biodistribution Brain / Biodistribution Liver / Biodistribution Muscle: normal male mice, Choi, 2009
[4] = cited from earlier work
[5] = humans, cited from earlier work
[6] = target: T3, Aβ plaques in AD brain tissue homogenates (Homo sapiens, UniProt P05067); conditions: cited from earlier work; for Ki: read-out: inhibition constant Ki
T3 construct: host or cells: AD brain tissue homogenate
T3 sequence (P05067 672-713 limits assumed): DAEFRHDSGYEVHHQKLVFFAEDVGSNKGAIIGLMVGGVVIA

[7] = target: T4, serotonin transporters (SERT) (Rattus norvegicus, UniProt P31652); assay: In vitro binding assay, LLC-SERT membrane homogenates, [^125I]IDAM; conditions: 0.2 nM [^125I]IDAM, LLC-SERT membranes; read-out: Ki (SERT binding affinity) (converted)
T4 construct: expressed in transfected cells; host or cells: LLC-PK1 (LLC-SERT)
T4 sequence (P31652 whole entry): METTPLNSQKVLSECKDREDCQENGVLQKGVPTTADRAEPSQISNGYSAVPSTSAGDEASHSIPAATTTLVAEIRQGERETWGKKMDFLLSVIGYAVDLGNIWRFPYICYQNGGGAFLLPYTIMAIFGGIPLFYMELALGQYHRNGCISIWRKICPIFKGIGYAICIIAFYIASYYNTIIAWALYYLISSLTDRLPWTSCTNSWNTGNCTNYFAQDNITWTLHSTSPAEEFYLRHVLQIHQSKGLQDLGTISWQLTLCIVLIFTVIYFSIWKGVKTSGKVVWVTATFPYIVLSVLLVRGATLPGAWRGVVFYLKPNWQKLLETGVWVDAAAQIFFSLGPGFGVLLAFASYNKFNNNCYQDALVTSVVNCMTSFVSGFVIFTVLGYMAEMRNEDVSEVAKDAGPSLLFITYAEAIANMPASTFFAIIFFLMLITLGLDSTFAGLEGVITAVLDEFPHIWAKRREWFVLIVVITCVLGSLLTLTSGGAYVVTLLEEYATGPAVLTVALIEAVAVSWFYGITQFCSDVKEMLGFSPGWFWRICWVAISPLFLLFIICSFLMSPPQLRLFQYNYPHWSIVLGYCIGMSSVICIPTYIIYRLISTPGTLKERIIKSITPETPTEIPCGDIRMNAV
Experimental: The membrane homogenates of serotonin transporters (LLC-SERT, which were expressed in a common parental cell line LLC-PK1) were prepared and used for the binding assays. Competitive binding assays were performed in a final volume of 0.25 mL. […] Nonspecific binding was defined with 10 μM citalopram. Incubation was carried out for 60 min at room temperature and the bound ligand was collected on glass fiber filters presoaked with 1% polyethylenimine (SIGMA, St. Louis, MO) and counted in a gamma counter (Wizard^2, Perkin Elmer).

T1 sequence (P05067 672-713 limits assumed): as the sequence (P05067 672-713 limits assumed) above

Structure (SMILES): [2H]C([2H])([2H])Nc1ccc(/C=C/c2ccc(OCCOCCOCCF)nc2)cc1 [AV-45-D3, IIa1]
- Ki ([1]; hot ligand ^18F-AV-45-D3): 3.25 ± 0.82 nM
- Ki ([1]; hot ligand ^18F-AV-45): 3.44 ± 1.22 nM
- Kd [1]: 3.51 nM

Structure (SMILES): COc1cc2c(cc1OCCCF)CCN1C[C@@H](CC(C)C)[C@H](O)C[C@H]21 [AV-133, reference compound]
- Ki ([2]; hot ligand ^18F-AV-133-D6): 0.26 ± 0.03 nM
- Ki ([2]; hot ligand ^18F-AV-133): 0.33 ± 0.02 nM
- Kd [2]: 0.11 nM

Structure (SMILES): CNc1ccc(/C=C/c2ccc(OCCOCCOCCF)nc2)cc1 [^18F-AV-45]
- initial brain uptake relative to metabolite ^18F-AV-160 ([3]; mice, initial uptake): 1.5 fold
- Biodistribution Blood ([3]; 2 min): 2.51 ± 0.31 % Dose/g
- Biodistribution Bone ([3]; 2 min): 1.33 ± 0.24 % Dose/g
- Biodistribution Brain ([3]; 2 min): 7.33 ± 1.54 % Dose/g
- Biodistribution Liver ([3]; 2 min): 16.3 ± 5.38 % Dose/g
- Biodistribution Muscle ([3]; 2 min): 3.49 ± 0.33 % Dose/g
- Biodistribution Blood ([3]; 60 min): 2.37 ± 0.27 % Dose/g
- Biodistribution Bone ([3]; 60 min): 3.66 ± 0.30 % Dose/g
- Biodistribution Brain ([3]; 60 min): 1.88 ± 0.14 % Dose/g
- Biodistribution Liver ([3]; 60 min): 11.1 ± 1.83 % Dose/g
- Biodistribution Muscle ([3]; 60 min): 1.33 ± 0.08 % Dose/g
- Biodistribution Blood ([3]; 120 min): 1.96 ± 0.23 % Dose/g
- Biodistribution Bone ([3]; 120 min): 6.48 ± 0.34 % Dose/g
- Biodistribution Brain ([3]; 120 min): 1.80 ± 0.20 % Dose/g
- Biodistribution Liver ([3]; 120 min): 8.96 ± 0.28 % Dose/g
- Biodistribution Muscle ([3]; 120 min): 1.02 ± 0.07 % Dose/g
- Biodistribution Blood ([3]; 180 min): 1.39 ± 0.13 % Dose/g
- Biodistribution Bone ([3]; 180 min): 7.83 ± 1.08 % Dose/g
- Biodistribution Brain ([3]; 180 min): 1.48 ± 0.15 % Dose/g
- Biodistribution Liver ([3]; 180 min): 5.39 ± 0.31 % Dose/g
- Biodistribution Muscle ([3]; 180 min): 0.78 ± 0.09 % Dose/g
- parent remained in the plasma ([4]; mice, 30 min after intravenous injection): 30%
- biologic T1/2 in mouse plasma ([4]; mouse plasma, estimated): less than 30 min
- decrease of plasma radioactivity ([5]; within 10 min of the injection): approximately 80%
- decrease of plasma radioactivity ([5]; within 20 min of the injection): approximately 90%

Structure (SMILES): CNc1ccc(/C=C/c2ccc(OCCOCCOCCF)nc2)cc1 [AV-45, reference compound]
- Ki ([1]; hot ligand ^18F-AV-45-D3): 3.24 ± 0.76 nM
- Ki ([1]; hot ligand ^18F-AV-45): 4.02 ± 0.22 nM
- Kd [1]: 3.51 nM
- Ki [6]: 2.87 ± 0.17 nM

Structure (SMILES): [2H]C([2H])(F)C([2H])([2H])C([2H])([2H])Oc1cc2c(cc1OC)[C@H]1C[C@@H](O)[C@H](CC(C)C)CN1CC2 [Ia (AV-133-D6), (2R,3R,11R)-9-(3-Fluoropropoxy-[1,1,2,2,3,3-D6])-3-isobutyl-10-methoxy-2,3,4,6,7,11b-hexahydro-1H-pyrido[2,1-a]isoquinolin-2-ol]
- Ki ([2]; hot ligand ^18F-AV-133-D6): 0.33 ± 0.06 nM
- Ki ([2]; hot ligand ^18F-AV-133): 0.32 ± 0.07 nM
- Kd [2]: 0.11 nM

Structure (SMILES): Nc1ccc(C=Cc2ccc(OCCOCCOCCF)nc2)cc1 [AV-160]
- reduction of binding affinity vs nonradioactive AV-45 [6]: ≥ 20 fold
- Ki [6]: 54 ± 5 nM

Structure (SMILES): Nc1ccc(/C=C/c2ccc(OCCOCCOCC[18F])nc2)cc1 [^18F-AV-160]
- brain uptake ([3]; mice, 2 min after injection): 4.5 % ID/g
- brain uptake ([3]; mice, 60 min): 1.8 % ID/g
- share of the plasma metabolites ([4]; mice, 30 min after injection): about 48%

Structure (SMILES): [2H]C([2H])([2H])Nc1ccc(/C=C/c2ccc(OCCOCCOCCF)cc2)cc1 [AV-1-D3, IIa2]
- Ki ([1]; hot ligand ^18F-AV-45-D3): 4.15 ± 0.75 nM
- Ki ([1]; hot ligand ^18F-AV-45): 3.35 ± 0.88 nM

Structure (SMILES): [2H]C([2H])(F)C([2H])([2H])C([2H])([2H])Oc1ccc(Sc2ccc(Br)cc2N)c(CN(C)C)c1 [III-4-26]
- Ki [7]: 0.021 nM

Structure (SMILES): CN(C)Cc1cc(O)ccc1Sc1ccc(Br)cc1N [III-4-18]
- Ki [7]: 0.02 nM

Structure (SMILES): [2H]C([2H])(F)C([2H])([2H])C([2H])([2H])Oc1ccc(Sc2ccccc2N)c(CN)c1 [III-5-8]
- Ki [7]: 44.9 ± 2.5 nM

Structure (SMILES): [2H]C([2H])([2H])N(Cc1cc(OC([2H])([2H])C([2H])([2H])C([2H])([2H])F)ccc1Sc1ccccc1N)C([2H])([2H])[2H] (single isomer, unassigned) [III-3 (FPBM- D12)]
- Ki [7]: 0.086 ± 0.029 nM

Structure (SMILES): [2H]C([2H])(F)C([2H])([2H])C([2H])([2H])Oc1ccc(Sc2ccc(F)cc2N)c(CN(C)C)c1 [III-4-27]
- Ki [7]: 0.024 nM

Structure (SMILES): CN(C)Cc1cc(O)ccc1Sc1ccc(Cl)cc1N [III-4-17]
- Ki [7]: 0.03 nM

Source: US12544463B2, “Deuterium substituted positron emission tomography (PET) imaging agents and their pharmacological application” (Five Eleven Pharma Inc., priority 2017, dated 2026)
